Drawing on US7304093B2, “Ketone compounds and compositions for cholesterol management and related uses” (Esperion Therapeutics, Inc., priority 2000, dated 2007), this text covers IC50, change in vivo and melting point for eight molecules.

The test system of one series is primary rat hepatocytes. In words: Inhibition of lipid synthesis ([1-14C]-acetate incorporation) in primary cultures of rat hepatocytes. Format: cell-based. As to conditions: Hepatocyte, 4 h incubation with [1-14C]-acetate. As to the method: Compounds were tested for inhibition of lipid synthesis in primary cultures of rat hepatocytes. Male Sprague-Dawley rats were anesthetized with intraperitoneal injection of sodium pentobarbital (80 mg/kg). Rat hepatocytes were isolated essentially as described by the method of Seglen (Seglen, P. O. Hepatocyte suspensions and cultures as tools in experimental carcinogenesis. J. Toxicol. Environ. Health 1979, 5, 551-560). Hepatocytes were suspended in Dulbecco's Modified Eagles Medium containing 25 mM D-glucose, 14 mM HEPES, 5 mM L-glutamine, 5 mM leucine, 5 mM alanine, 10 mM lactate, 1 mM pyruvate, 0.2% bovine serum albumin, 17.4 mM non-essential amino acids, 20% fetal bovine serum, […] and 20 μg/mL gentamycin) and plated at a density of 1.5×10^5 cells/cm^2 on collagen-coated 96-well plates. Four hours after plating, media was replaced with the same media without serum. Cells were grown overnight to allow formation of monolayer cultures. Lipid synthesis incubation conditions were initially assessed to ensure the linearity of [1-^14C]-acetate incorporation into hepatocyte lipids for up to 4 hours. Hepatocyte lipid synthesis inhibitory activity was assessed during incubations in the presence of 0.25 μCi [1-^14C]-acetate/well (final radiospecific activity in assay is 1 Ci/mol) and 0, 1, 3, 10, 30, 100 or 300 μM of compounds for 4 hours. At the end of the 4-hour incubation period, medium was discarded and cells were washed twice with ice-cold phosphate buffered saline and stored frozen prior to analysis. To determine total lipid synthesis, 170 μl of MicroScint-E® and 50 μl water was added to each well to extract and partition the lipid soluble products to the upper organic phase containing the scintillant. Lipid radioactivity was assessed by scintillation spectroscopy in a Packard TopCount NXT.

The test system of a further series is female obese Zucker rats. Nature of the series: Serum lipid and glycemic control variables in chow-fed obese female Zucker rats, daily oral gavage for two weeks. Format: in vivo, rat. As to conditions: Rattus norvegicus; for change in vivo at 100 mg/kg: 100 mg/kg daily oral; for change in vivo at 59 mg/kg: 59 mg/kg daily oral; for change in vivo at 30 mg/kg: 30 mg/kg daily oral. Here is the method: Ten- to twelve-week old (400-500 grams) female Zucker fatty rats Cr1: (Zuc)-faBR were obtained from Charles River Laboratories. Animals were acclimated to the laboratory environment for seven days. During the acclimation and study period, animals were housed by group in shoebox polycarbonate cages on Cellu-Dri bedding. The temperature and humidity in the animals' quarters (68-78° F.; 30-75% RH) were monitored and the airflow in the room was sufficient to provide several exchanges per hour with 100% fresh filtered air. An automatic timing device provided an alternating 12-hour cycle of light and dark. Rats received pelleted Purina Laboratory Rodent Chow® (5001) prior to and during the drug intervention period except for a 6-hour phase prior to blood sampling. Fresh water was supplied ad libitum via an automatic watering system. Compounds were dissolved, suspended by mixing in a dosing vehicle consisting of 1.5% carboxymethylcellulose/0.2% Tween 20 or 20% ethanol and 80% polyethylene glycol-200 [v/v]. Dose volume of vehicle or vehicle plus each compound was set at 0.25% of body weight in order to deliver the appropriate dose. Doses were administered daily by oral gavage, approximately between 8-10 AM. Regarding blood sampling, animals were fasted for 6 hours prior to all blood collections. Prior to and after 7 days of dosing, a 1.0- to 2.0-mL sample of blood was collected by administering O2/CO2 anesthesia and bleeding from the orbital venous plexus. Following 14 days of dosing, blood was collected by cardiac puncture after euthanasia with CO2. All blood samples were processed for separation of serum and stored at −80° C. until analysis. Commercially available kits were used to determine serum triglycerides (Roche Diagnostic Corporation, Kit No. 148899 or Boehringer Mannheim, Kit No. 1488872), total cholesterol (Roche Diagnostic Corporation, Kit No. 450061), non-esterified fatty acids (Wako Chemicals, Kit No. 994-75409) and β-hydroxybutyrate (Wako Chemicals, Kit No. 417-73501 or Sigma Kit. No. 310-0) on a Hitachi 912 Automatic Analyzer (Roche Diagnostic Corporation). In some instances, an in-house cholesterol reagent was used to determine total serum cholesterol levels. Serum lipoprotein cholesterol levels were determined by lipoprotein profile analysis. Lipoprotein profiles were analyzed using gel-filtration chromatography on a Superose 6HR (1×30 cm) column equipped with on-line detection of total cholesterol as described by Kieft et al (Kieft, K. A.; Bocan, T. M.; Krause, B. R. Rapid on-line determination of cholesterol distribution among plasma lipoproteins after high-performance gel filtration chromatography. J. Lipid Res. 1991, 32, 859-866.). The total cholesterol content of each lipoprotein was calculated by multiplying the independent values determined for serum total cholesterol by the percent area of each lipoprotein in the profile. The percent body weight gain and the ratio of liver to body weight is also determined. Selected data are shown as absolute values or as a percent change of the pretreatment values in Tables 8 and 9.
Select compounds (214c, 210c, and 210g) were further evalutated in the Zucker rat by performing a full dose response and measuring additional scrum variables including markers for diabetes (Tables 10-12).

[1] abbreviates: 168 h, 1 wk, 100% = 2-fold increase, Table 8, read-out: HDL-Cholesterol, Percent Change from Pre-Treatment.
[2] abbreviates: 168 h, 1 wk, 100% = 2-fold increase, Table 8, read-out: NonHDL-Cholesterol, Percent Change from Pre-Treatment.
The mark [3] stands for this setting: 168 h, 1 wk, 100% = 2-fold increase, Table 8, read-out: TG, Percent Change from Pre-Treatment.
Setting [4] is: 336 h, 2 wk, 100% = 2-fold increase, Table 8, read-out: HDL-Cholesterol, Percent Change from Pre-Treatment.
[5] abbreviates: 336 h, 2 wk, 100% = 2-fold increase, Table 8, read-out: NonHDL-Cholesterol, Percent Change from Pre-Treatment.
The mark [6] stands for this setting: 336 h, 2 wk, 100% = 2-fold increase, Table 8, read-out: TG, Percent Change from Pre-Treatment.
[7] abbreviates: 168 h, 1 wk, Table 9, read-out: HDL-Cholesterol, Percent Change from Pre-Treatment.
The mark [8] stands for this setting: 168 h, 1 wk, Table 9, read-out: NonHDL-Cholesterol, Percent Change from Pre-Treatment.
Setting [9] is: 168 h, 1 wk, Table 9, read-out: TG, Percent Change from Pre-Treatment.
[10] abbreviates: 336 h, 2 wk, Table 9, read-out: HDL-Cholesterol, Percent Change from Pre-Treatment.
The mark [11] stands for this setting: 336 h, 2 wk, Table 9, read-out: NonHDL-Cholesterol, Percent Change from Pre-Treatment.
The mark [12] stands for this setting: 336 h, 2 wk, Table 9, read-out: TG, Percent Change from Pre-Treatment.
The mark [13] stands for this setting: Table 7, ranges: confidence of estimate insufficient to assign a value.

Read-outs that look alike come from different tables or passages of the source.

By IC50 is commonly meant the concentration that gives 50% inhibition. For orientation: melting point means the temperature, or range, at which the solid turns liquid. `O=C(CCCCC1(C(=O)O)CC1)CCCCC1(C(=O)O)CC1` [Compound 107d, 1-[9-(1-Carboxycyclopropyl)-5-oxononyl]-1-cyclopropanecarboxylic acid] displayed a melting point of 132 to 134 °C. In the series on primary rat hepatocytes (Table 6), this molecule yielded an IC50 of 0.3 µM. In addition, in the series on female obese Zucker rats (setting [1]), the change in vivo at 100 mg/kg turned out to be 180%. Also, in the series with female obese Zucker rats (setting [2]), the change in vivo at 100 mg/kg came out at 22%. In the series on female obese Zucker rats (setting [3]), the change in vivo at 100 mg/kg is -51%. The change in vivo at 100 mg/kg with female obese Zucker rats (setting [4]) was found to be 260%. Further, in the series with female obese Zucker rats (setting [5]), the change in vivo at 100 mg/kg was 63%. For the same molecule, the change in vivo at 100 mg/kg in the series on female obese Zucker rats (setting [6]) was -28%.

The molecule `CC(C)(Cc1cccc(C(=O)c2cccc(CC(C)(C)C(=O)O)c2)c1)C(=O)O` [Compound 231, 3-{3-[3-(2-Carboxy-2-methylpropyl)-benzoyl]-phenyl}-2,2-dimethylpropionic acid] displayed a melting point of 46 to 48 °C. For the same molecule, the change in vivo at 59 mg/kg in the series with female obese Zucker rats (setting [7]) was determined as 2%. The change in vivo at 59 mg/kg with female obese Zucker rats (setting [8]) was -43%. In addition, the change in vivo at 59 mg/kg in the series with female obese Zucker rats (setting [9]) is -24%. In the series with female obese Zucker rats (setting [10]), the change in vivo at 59 mg/kg came out at 7%. Besides, in the series on female obese Zucker rats (setting [11]), the change in vivo at 59 mg/kg is 34%. In the series on female obese Zucker rats (setting [12]), the change in vivo at 59 mg/kg is 7%.

The molecule `CC(C)(CCCCCCCC(=O)CCCCCCCC(C)(C)C(=O)O)C(=O)O` [Compound 107n, 10-Oxo-2,2,18,18-tetramethyl-nonadecanedioic acid] showed a melting point of 74 to 77 °C. Moreover, half-maximal inhibition in the series with primary rat hepatocytes (Table 6) (IC50) required 10 µM. The change in vivo at 100 mg/kg with female obese Zucker rats (setting [1]) was determined as 44%. Also, the change in vivo at 100 mg/kg in the series on female obese Zucker rats (setting [2]) was -80%. The change in vivo at 100 mg/kg in the series on female obese Zucker rats (setting [3]) is -85%. For the same molecule, in the series on female obese Zucker rats (setting [4]), the change in vivo at 100 mg/kg was 86%. In addition, the change in vivo at 100 mg/kg with female obese Zucker rats (setting [5]) was -45%. For the same molecule, the change in vivo at 100 mg/kg with female obese Zucker rats (setting [6]) is -64%.

As to `CC(CCCC(=O)CCCC(C)(C(=O)O)c1ccccc1)(C(=O)O)c1ccccc1` (stereo not shown) [Compound 210b, 2,10-Dimethyl-6-oxo-2,10-diphenylundecanedioic acid], the melting point lay in the range of 44 to 46 °C. Also, in the series with female obese Zucker rats (setting [7]), the change in vivo at 100 mg/kg was 4%. For the same molecule, the change in vivo at 100 mg/kg in the series with female obese Zucker rats (setting [8]) is 36%. Also, the change in vivo at 100 mg/kg with female obese Zucker rats (setting [9]) turned out to be 10%. In the series on female obese Zucker rats (setting [10]), the change in vivo at 100 mg/kg stood at 12%. Besides, the change in vivo at 100 mg/kg in the series on female obese Zucker rats (setting [11]) was 65%. Also, in the series with female obese Zucker rats (setting [12]), the change in vivo at 100 mg/kg came to 26%.

Regarding `CC(C)Cc1ccc(C(C)(CCCCC(=O)CCCCC(C)(C(=O)O)c2ccc(CC(C)C)cc2)C(=O)O)cc1` (stereo not shown) [Compound 210f, 2,12-Bis-(4-isobutylphenyl)-2,12-dimethyl-7-oxotridecanedioic acid], the concentration for half-maximal inhibition (IC50) in the series with primary rat hepatocytes (setting [13]) was 100 to 300 µM. Moreover, the change in vivo at 100 mg/kg in the series on female obese Zucker rats (setting [7]) is 11%; in the series on female obese Zucker rats (setting [8]), -40%; with female obese Zucker rats (setting [9]), -63%; in the series on female obese Zucker rats (setting [10]), 62%; with female obese Zucker rats (setting [11]), -44%; in the series on female obese Zucker rats (setting [12]) it was -66%.

In the case of `CC(CO)(CCCCC(=O)CCCCC(C)(CO)c1ccccc1)c1ccccc1` (stereo not shown) [Compound 214d, 1,13-Dihydroxy-2,12-dimethyl-2,12-diphenyltridecan-7-one], the concentration for half-maximal inhibition (IC50) in the series with primary rat hepatocytes (setting [13]) was 100 to 300 µM. The change in vivo at 30 mg/kg in the series with female obese Zucker rats (setting [7]) was -1%; with female obese Zucker rats (setting [8]), -30%; in the series with female obese Zucker rats (setting [9]) it was -24%; with female obese Zucker rats (setting [10]) it was -27%; with female obese Zucker rats (setting [11]) it was 30%; in the series on female obese Zucker rats (setting [12]), 20%.

As for `CC(C)(CO)CCCCCC(=O)CCCCCC(C)(C)CO` [Compound 214g, 1,15-Dihydroxy-2,2,14,14-tetramethylpentadecan-8-one], the 50% inhibitory concentration (IC50) with primary rat hepatocytes (setting [13]) is 3 µM. For the same molecule, the change in vivo at 100 mg/kg was 76% in the series with female obese Zucker rats (setting [7]); -91% in the series on female obese Zucker rats (setting [8]); -92% in the series on female obese Zucker rats (setting [9]); 135% with female obese Zucker rats (setting [10]); -88% in the series on female obese Zucker rats (setting [11]); -92% with female obese Zucker rats (setting [12]).

In the case of `CC(C)(CO)CCCC(=O)CCCC(C)(C)CO` [Compound 214a, 1,11-Dihydroxy-2,2,10,10-tetramethylundecan-6-one], in the series on primary rat hepatocytes (setting [13]), the IC50 is 27 µM. Further, the change in vivo at 100 mg/kg in the series on female obese Zucker rats (setting [7]) was 24%; in the series with female obese Zucker rats (setting [8]), -23%; in the series with female obese Zucker rats (setting [9]) it was -31%; with female obese Zucker rats (setting [10]), 2%; with female obese Zucker rats (setting [11]) it was 28%; in the series with female obese Zucker rats (setting [12]), 0%.
